Laboratory results as given in ChEMBL document CHEMBL4043296 (J Med Chem, 2018).

Assays:
MDR1 = experiment: Apparent passive permeability across apical to basolateral side in MDCK2 cells expressing MDR1 at 3 uM after 60 mins by mass spectroscopy; assay type: ADME, cell-based, Canis lupus familiaris, MDCK-II; conditions: dog, MDCK-MDR1
[1] = target: Beta-1 adrenergic receptor (Homo sapiens, UniProt P08588); experiment: Displacement of [3H]CGP12177 from human recombinant beta1 adrenergic receptor expressed in HEK293 cell membranes after 90 mins by beta counting method
Beta-1 adrenergic receptor, sequence (P08588 whole entry): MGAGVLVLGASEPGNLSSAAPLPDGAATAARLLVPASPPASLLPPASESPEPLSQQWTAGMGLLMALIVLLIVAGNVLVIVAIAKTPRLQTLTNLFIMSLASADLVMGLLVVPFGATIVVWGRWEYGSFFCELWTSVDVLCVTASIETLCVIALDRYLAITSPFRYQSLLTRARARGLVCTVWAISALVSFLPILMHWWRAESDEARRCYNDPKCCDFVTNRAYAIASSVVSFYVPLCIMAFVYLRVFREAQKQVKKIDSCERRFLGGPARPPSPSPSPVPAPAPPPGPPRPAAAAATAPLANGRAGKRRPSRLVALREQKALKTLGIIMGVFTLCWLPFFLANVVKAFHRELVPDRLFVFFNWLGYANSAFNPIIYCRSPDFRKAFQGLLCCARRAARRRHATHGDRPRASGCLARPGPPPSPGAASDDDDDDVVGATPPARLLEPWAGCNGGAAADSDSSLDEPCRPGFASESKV

[2] = target: T1, Alpha-1A adrenergic receptor (Homo sapiens, UniProt P35348); experiment: Displacement of [3H]prazosin from human recombinant alpha-1A adrenergic receptor expressed in CHO cell membranes after 30 mins by liquid scintillation counting method
T1 sequence (P35348 whole entry): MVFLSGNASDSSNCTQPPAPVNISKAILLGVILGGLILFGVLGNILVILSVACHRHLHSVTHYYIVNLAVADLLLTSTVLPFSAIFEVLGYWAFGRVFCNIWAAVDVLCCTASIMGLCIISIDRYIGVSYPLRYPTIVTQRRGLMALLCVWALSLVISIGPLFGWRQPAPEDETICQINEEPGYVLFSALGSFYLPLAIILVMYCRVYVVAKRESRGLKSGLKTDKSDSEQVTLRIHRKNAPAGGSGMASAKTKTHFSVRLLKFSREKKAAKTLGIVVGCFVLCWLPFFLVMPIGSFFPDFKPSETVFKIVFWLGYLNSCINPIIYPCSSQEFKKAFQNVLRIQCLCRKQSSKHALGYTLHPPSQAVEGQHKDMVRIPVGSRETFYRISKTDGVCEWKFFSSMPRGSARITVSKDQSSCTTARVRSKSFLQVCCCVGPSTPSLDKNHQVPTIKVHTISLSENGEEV

[3] = target: T2, Muscarinic acetylcholine receptor M5 (Homo sapiens, UniProt P08912); experiment: Displacement of [3H]NMS from human muscarinic M5 receptor expressed in CHO cell membranes after 2 hrs by liquid scintillation counting method
T2 sequence (P08912 whole entry): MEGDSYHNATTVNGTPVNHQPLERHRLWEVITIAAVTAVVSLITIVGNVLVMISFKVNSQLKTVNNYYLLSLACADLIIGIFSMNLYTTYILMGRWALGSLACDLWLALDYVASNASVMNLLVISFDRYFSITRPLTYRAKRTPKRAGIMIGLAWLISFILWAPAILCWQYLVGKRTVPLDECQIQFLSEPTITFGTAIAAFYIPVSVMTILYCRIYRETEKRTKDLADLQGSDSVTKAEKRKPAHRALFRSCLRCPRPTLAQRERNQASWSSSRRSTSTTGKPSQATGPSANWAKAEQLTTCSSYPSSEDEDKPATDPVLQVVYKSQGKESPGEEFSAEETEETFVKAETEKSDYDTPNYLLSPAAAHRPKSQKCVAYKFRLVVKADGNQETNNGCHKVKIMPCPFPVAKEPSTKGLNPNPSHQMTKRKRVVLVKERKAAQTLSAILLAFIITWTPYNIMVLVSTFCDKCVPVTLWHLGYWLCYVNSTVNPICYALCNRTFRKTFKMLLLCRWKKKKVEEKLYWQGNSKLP

Homo sapiens = species: Homo sapiens; experiment: Selectivity ratio of Ki for human dopamine D2 receptor to Ki for human dopamine D4 receptor
Brain = experiment: fAUClast in CD1 mouse brain at 3 mg/kg, sc by UPLC-MS analysis; assay type: ADME, organism-based; conditions: in vivo
[4] = Half life in CD1 mouse plasma at 3 mg/kg, sc by UPLC-MS analysis; assay type: ADME, organism-based
[5] = target: T3, Muscarinic acetylcholine receptor M1 (Homo sapiens, UniProt P11229); experiment: Agonist activity at human SP/Myc epitope-tagged muscarinic M1 receptor expressed in HEK293T cells assessed as RLuc8-fused Galphaq activation after 2 mins by BRET assay; assay type: cell-based, HEK-293T
T3 sequence (P11229 whole entry): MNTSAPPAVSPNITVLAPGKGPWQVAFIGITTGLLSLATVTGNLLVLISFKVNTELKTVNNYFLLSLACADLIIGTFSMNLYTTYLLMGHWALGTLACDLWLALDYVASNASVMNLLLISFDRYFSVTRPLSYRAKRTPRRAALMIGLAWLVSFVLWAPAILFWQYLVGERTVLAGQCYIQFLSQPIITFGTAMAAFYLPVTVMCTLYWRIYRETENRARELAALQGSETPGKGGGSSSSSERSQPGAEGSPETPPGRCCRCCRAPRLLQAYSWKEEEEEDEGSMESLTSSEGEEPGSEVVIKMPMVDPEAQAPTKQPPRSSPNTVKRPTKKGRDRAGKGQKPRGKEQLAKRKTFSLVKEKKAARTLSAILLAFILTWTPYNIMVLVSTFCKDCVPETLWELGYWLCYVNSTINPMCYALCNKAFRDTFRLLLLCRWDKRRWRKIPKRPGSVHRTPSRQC

[6] = target: T3, Muscarinic acetylcholine receptor M1; experiment: Displacement of [3H]NMS from human muscarinic M1 receptor expressed in CHO cell membranes after 2 hrs by liquid scintillation counting method
[7] = target: Sigma non-opioid intracellular receptor 1 (Cavia porcellus, UniProt Q60492); experiment: Displacement of [3H](+)-pentazocine from sigma1 receptor in Hartley guinea pig brain cortex after 120 mins by scintillation counting method
Sigma non-opioid intracellular receptor 1, sequence (Q60492 whole entry, the tested form may be a part): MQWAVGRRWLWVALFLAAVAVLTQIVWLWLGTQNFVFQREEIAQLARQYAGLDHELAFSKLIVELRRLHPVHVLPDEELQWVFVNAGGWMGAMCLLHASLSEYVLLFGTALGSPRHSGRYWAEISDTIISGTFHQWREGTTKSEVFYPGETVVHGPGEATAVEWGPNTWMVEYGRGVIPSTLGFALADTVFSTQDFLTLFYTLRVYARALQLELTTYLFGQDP

[8] = target: T4, Muscarinic acetylcholine receptor M4 (Homo sapiens) (UniProt P08173); experiment: Agonist activity at human SP/Myc epitope-tagged muscarinic M4 receptor expressed in HEK293T cells assessed as RLuc8-fused Galphaq activation after 2 mins by BRET assay relative to carbachol; assay type: cell-based; conditions: HEK-293T
T4 sequence (whole entry): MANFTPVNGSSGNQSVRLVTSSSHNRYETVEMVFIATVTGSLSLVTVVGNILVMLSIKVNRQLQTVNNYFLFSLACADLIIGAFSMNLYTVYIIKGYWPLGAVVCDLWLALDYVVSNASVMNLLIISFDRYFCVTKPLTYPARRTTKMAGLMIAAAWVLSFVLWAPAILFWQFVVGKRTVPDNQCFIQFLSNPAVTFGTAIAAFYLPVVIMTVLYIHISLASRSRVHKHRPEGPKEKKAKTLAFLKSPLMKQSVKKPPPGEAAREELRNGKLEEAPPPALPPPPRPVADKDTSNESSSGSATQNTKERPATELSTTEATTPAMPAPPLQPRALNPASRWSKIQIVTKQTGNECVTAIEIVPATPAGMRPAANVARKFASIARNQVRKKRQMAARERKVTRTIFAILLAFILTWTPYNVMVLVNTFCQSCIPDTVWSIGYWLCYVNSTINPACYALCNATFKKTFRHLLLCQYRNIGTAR

[9] = target: T5, Muscarinic acetylcholine receptor M1 (Homo sapiens) (UniProt P11229); experiment: Agonist activity at human SP/Myc epitope-tagged muscarinic M1 receptor expressed in HEK293T cells assessed as RLuc8-fused Galphaq activation after 2 mins by BRET assay relative to carbachol; assay type: cell-based; conditions: HEK-293T
T5 sequence (whole entry): T3 sequence (P11229 whole entry)

[10] = Ratio of AUC in CD1 mouse brain to AUC in CD1 mouse plasma at 3 mg/kg, sc; assay type: ADME, organism-based; conditions: read-out: Ratio AUC
D(2) dopamine receptor = D(2) dopamine receptor (Homo sapiens, UniProt P14416); experiment: Displacement of [3H]N-methylspiperone from human dopamine D2 receptor expressed in HEK293 cell membranes after 1 hr by scintillation counting method
D(2) dopamine receptor, sequence (P14416 whole entry): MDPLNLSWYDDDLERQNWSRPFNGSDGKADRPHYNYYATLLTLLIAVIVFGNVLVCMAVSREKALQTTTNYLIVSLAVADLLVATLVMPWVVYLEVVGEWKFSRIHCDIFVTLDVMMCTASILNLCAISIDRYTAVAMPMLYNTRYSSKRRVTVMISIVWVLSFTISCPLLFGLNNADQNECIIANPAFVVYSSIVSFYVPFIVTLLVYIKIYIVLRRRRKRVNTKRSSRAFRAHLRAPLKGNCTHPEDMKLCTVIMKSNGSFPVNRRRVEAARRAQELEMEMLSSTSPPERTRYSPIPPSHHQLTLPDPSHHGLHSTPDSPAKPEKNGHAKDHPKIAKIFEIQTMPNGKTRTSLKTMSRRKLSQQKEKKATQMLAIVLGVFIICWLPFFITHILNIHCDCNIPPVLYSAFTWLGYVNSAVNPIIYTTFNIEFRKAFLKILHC

SMILES	Papp A→B at 1 h, 3 µM (MDR1)	Ki [1]	Ki [2]	Ki [3]	Ratio Ki (Homo sapiens)	fAUClast (Brain)	half-life [4]	EC50 [5]	Ki [6]	Ki [7]	Emax [8]	Emax [9]	Kp [10]	Ki (D(2) dopamine receptor)
O=C1CCc2ccccc2N1CCCN1CCN(c2ccccc2)CC1	16.2 ×10⁻⁶ cm/s	32400 nM	53.7 nM	27500 nM	380	204 ng·h/mL	46.2 min	646 nM	4270 nM	269 nM	17%	42%	4.35	1100 nM
O=C1CCc2ccccc2N1CCCN1CCC(Cc2ccccc2)CC1	10.9 ×10⁻⁶ cm/s	10200 nM	257 nM	3720 nM	724			186 nM	363 nM	10 nM	24%	25%		912 nM
